According to US9371336B2, “Compounds for treating spinal muscular atrophy” (PTC Therapeutics Inc., priority 2012, dated 2016):

Columns and labels:
[1] = test system: SMN2 minigene mRNA (SMN2-A minigene construct); experiment: SMN2 minigene mRNA splicing RT-qPCR assay in cultured cells; type: cell-based, human; conditions: Homo sapiens, HEK293-H; HEK293H cells stably transfected with SMN2-A minigene, 24 hours, 7-point concentration data; concentration giving 1.5-fold SMN2 full length mRNA relative to vehicle-treated cells; read-out: EC1.5x for production of full length SMN2 mRNA
Procedure, shortened: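 Full-length SMN2 minigene mRNA, measured by exon 7/luciferase-specific RT-qPCR that excludes endogenous SMN1/SMN2, was normalized to GAPDH and expressed relative to vehicle-treated cells via modified ΔΔCt. Stably transfected HEK293H cells received compound (7-point, 3.16-fold series, duplicates) for 24 h at 37 °C.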

Smn protein = Smn protein assay (HTRF) in cultured cells (SMA patient fibroblasts GM03813); type: cell-based, human; conditions: 48 hours; for maximum fold (Fold) increase of Smn protein: SMA patient fibroblast cells, 7-point concentration curve, relative to vehicle control; for EC1.5x for Smn protein expression: SMA patient fibroblast cells (GM03813), HTRF, 7-point concentration data, concentration producing 1.5 times Smn protein vs DMSO vehicle control
Procedure, shortened: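 Smn level is expressed as fold over vehicle, from blank-corrected ΔF of the 665/620 nm HTRF ratio. Readout used anti-SMN d2 and kryptate antibodies on RIPA lysates. GM03813 SMA fibroblasts had 48 h exposure at 37° C to seven 3.16-fold compound dilutions, run in triplicate.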

| melting point [°C] | Structure (SMILES) | EC (1.5-fold) [1] [µM] | maximum fold (Fold) increase of Smn protein (Smn protein) | EC1.5x for Smn protein expression (Smn protein) |
| --- | --- | --- | --- | --- |
| 278 to 284 | Cl.O=c1oc2cc(N3CCNCC3)ncc2cc1-c1cn2ccccc2n1 [Cpd 42, 3-(imidazo[1,2-a]pyridin-2-yl)-7-(piperazin-1-yl)-2H-pyrano[3,2-c]pyridin-2-one hydrochloride] | 3 to 30 | ** (a fold increase between >1.2 and ≦1.35 is indicated by two stars (**)) | – |
| 265 to 267 | Cl.O=c1oc2nc(N3CCCNCC3)ccc2cc1-c1cn2ccccc2n1 [Cpd 45, 7-(1,4-diazepan-1-yl)-3-(imidazo[1,2-a]pyridin-2-yl)-2H-pyrano[2,3-b]pyridin-2-one hydrochloride] | 0.1 to 0.3 | **** (a fold increase between >1.5 and ≦1.65 is indicated by four stars (****)) | *** (an EC1.5× between >0.3 μM and ≦1 μM is indicated by three stars (***)) |
| 267 to 269 | Cl.O=c1oc2nc(N3CCCNCC3)ccc2cc1-c1cn2cccc(F)c2n1 [Cpd 46, 7-(1,4-diazepan-1-yl)-3-(8-fluoroimidazo[1,2-a]pyridin-2-yl)-2H-pyrano[2,3-b]pyridin-2-one hydrochloride] | ≤ 0.1 | **** (a fold increase between >1.5 and ≦1.65 is indicated by four stars (****)) | **** (an EC1.5×≦0.3 μM is indicated by four stars (****)) |
| 252 to 255 | Cl.O=c1oc2nc(N3CCCNCC3)ccc2cc1-c1cn2cccc(Cl)c2n1 [Cpd 47, 3-(8-chloroimidazo[1,2-a]pyridin-2-yl)-7-(1,4-diazepan-1-yl)-2H-pyrano[2,3-b]pyridin-2-one hydrochloride] | ≤ 0.1 | ***** (a fold increase >1.65 is indicated by five stars (*****)) | **** (an EC1.5×≦0.3 μM is indicated by four stars (****)) |
| 271 to 274 | CN1CCCN(c2ccc3cc(-c4cn5ccccc5n4)c(=O)oc3n2)CC1 [Cpd 48, 3-(imidazo[1,2-a]pyridin-2-yl)-7-(4-methyl-1,4-diazepan-1-yl)-2H-pyrano[2,3-b]pyridin-2-one] | 0.1 to 0.3 | **** (a fold increase between >1.5 and ≦1.65 is indicated by four stars (****)) | *** (an EC1.5× between >0.3 μM and ≦1 μM is indicated by three stars (***)) |
| 269 to 272 | CN1CCCN(c2ccc3cc(-c4cn5cccc(F)c5n4)c(=O)oc3n2)CC1 [Cpd 49, 3-(8-fluoroimidazo[1,2-a]pyridin-2-yl)-7-(4-methyl-1,4-diazepan-1-yl)-2H-pyrano[2,3-b]pyridin-2-one] | ≤ 0.1 | **** (a fold increase between >1.5 and ≦1.65 is indicated by four stars (****)) | *** (an EC1.5× between >0.3 μM and ≦1 μM is indicated by three stars (***)) |
| 245 to 246 | CN1CCCN(c2ccc3cc(-c4cn5cccc(Cl)c5n4)c(=O)oc3n2)CC1 [Cpd 50, 3-(8-chloroimidazo[1,2-a]pyridin-2-yl)-7-(4-methyl-1,4-diazepan-1-yl)-2H-pyrano[2,3-b]pyridin-2-one] | ≤ 0.1 | ***** (a fold increase >1.65 is indicated by five stars (*****)) | **** (an EC1.5×≦0.3 μM is indicated by four stars (****)) |
| 284 to 286 | Cl.O=c1oc2nc(N3CCCNCC3)ccc2cc1-c1nc2ccccc2s1 [Cpd 51, 3-(1,3-benzothiazol-2-yl)-7-(1,4-diazepan-1-yl)-2H-pyrano[2,3-b]pyridin-2-one hydrochloride] | 0.3 to 1 | ** (a fold increase between >1.2 and ≦1.35 is indicated by two stars (**)) | – |
| 243 to 245 | Cl.O=c1oc2nc(N3CCCNCC3)ccc2cc1-c1nc2ccccc2o1 [Cpd 52, 3-(1,3-benzoxazol-2-yl)-7-(1,4-diazepan-1-yl)-2H-pyrano[2,3-b]pyridin-2-one hydrochloride] | 3 to 30 | * (A maximum fold increase ≦1.2 is indicated by one star (*)) | – |
| 264 to 268 | Cc1ccn2nc(-c3cc4ccc(N5CCN(C)CC5)nc4oc3=O)cc2c1 [Cpd 53, 7-(4-methylpiperazin-1-yl)-3-(5-methylpyrazolo[1,5-a]pyridin-2-yl)-2H-pyrano[2,3-b]pyridin-2-one] | 0.1 to 0.3 | *** (a fold increase between >1.35 and ≦1.5 is indicated by three stars (***)) | – |
| 268 to 272 | CN1CCN(c2ccc3cc(-c4cn5ccsc5n4)c(=O)oc3n2)CC1 [Cpd 54, 3-(imidazo[2,1-b][1,3]thiazol-6-yl)-7-(4-methylpiperazin-1-yl)-2H-pyrano[2,3-b]pyridin-2-one] | 0.1 to 0.3 | **** (a fold increase between >1.5 and ≦1.65 is indicated by four stars (****)) | *** (an EC1.5× between >0.3 μM and ≦1 μM is indicated by three stars (***)) |
| 282 to 286 | Cc1cn2cc(-c3cc4cnc(N5CCN(C)CC5)cc4oc3=O)nc2s1 [Cpd 55, 3-(2-methylimidazo[2,1-b][1,3]thiazol-6-yl)-7-(4-methylpiperazin-1-yl)-2H-pyrano[3,2-c]pyridin-2-one] | 1 to 3 | *** (a fold increase between >1.35 and ≦1.5 is indicated by three stars (***)) | ** (an EC1.5× between >1 and ≦3 μM is indicated by two stars (**)) |
| 274 to 276 | CN1CCCN(c2ccc3cc(-c4nc5ccccc5s4)c(=O)oc3n2)CC1 [Cpd 56, 3-(1,3-benzothiazol-2-yl)-7-(4-methyl-1,4-diazepan-1-yl)-2H-pyrano[2,3-b]pyridin-2-one] | 0.1 to 0.3 | ** (a fold increase between >1.2 and ≦1.35 is indicated by two stars (**)) | * (An EC1.5× for Smn protein expression between >3 μM and ≦10 μM is indicated by one star (*)) |
| 283 to 285 | C[C@@H]1CN(c2ccc3cc(-c4cn5ccccc5n4)c(=O)oc3n2)C[C@H](C)N1 [Cpd 60, 7-[(3R,5S)-3,5-dimethylpiperazin-1-yl]-3-(imidazo[1,2-a]pyridin-2-yl)-2H-pyrano[2,3-b]pyridin-2-one] | ≤ 0.1 | *** (a fold increase between >1.35 and ≦1.5 is indicated by three stars (***)) | ** (an EC1.5× between >1 and ≦3 μM is indicated by two stars (**)) |
| 246 to 250 | Cc1ccn2cc(-c3cc4ccc(N5CCN(C)[C@@H](C)C5)nc4oc3=O)nc2c1 [Cpd 61, 7-[(3S)-3,4-dimethylpiperazin-1-yl]-3-(7-methylimidazo[1,2-a]pyridin-2-yl)-2H-pyrano[2,3-b]pyridin-2-one] | ≤ 0.1 | **** (a fold increase between >1.5 and ≦1.65 is indicated by four stars (****)) | **** (an EC1.5×≦0.3 μM is indicated by four stars (****)) |
| 242 to 246 | Cc1ccn2cc(-c3cc4ccc(N5CCN(C)C[C@@H]5C)nc4oc3=O)nc2c1 [Cpd 62, 7-[(2S)-2,4-dimethylpiperazin-1-yl]-3-(7-methylimidazo[1,2-a]pyridin-2-yl)-2H-pyrano[2,3-b]pyridin-2-one] | ≤ 0.1 | **** (a fold increase between >1.5 and ≦1.65 is indicated by four stars (****)) | **** (an EC1.5×≦0.3 μM is indicated by four stars (****)) |
| 239 to 241 | Cc1ccn2cc(-c3cc4ccc(N5CCCNCC5)nc4oc3=O)nc2c1 [Cpd 65, 7-(1,4-diazepan-1-yl)-3-(7-methylimidazo[1,2-a]pyridin-2-yl)-2H-pyrano[2,3-b]pyridin-2-one] | 0.3 to 1 | **** (a fold increase between >1.5 and ≦1.65 is indicated by four stars (****)) | **** (an EC1.5×≦0.3 μM is indicated by four stars (****)) |
| 240 to 243 | Cc1ccc2nc(-c3cc4ccc(N5CCCNCC5)nc4oc3=O)cn2c1 [Cpd 66, 7-(1,4-diazepan-1-yl)-3-(6-methylimidazo[1,2-a]pyridin-2-yl)-2H-pyrano[2,3-b]pyridin-2-one] | 0.1 to 0.3 | *** (a fold increase between >1.35 and ≦1.5 is indicated by three stars (***)) | ** (an EC1.5× between >1 and ≦3 μM is indicated by two stars (**)) |
| 248 to 251 | Cc1ccc2nc(-c3cc4ccc(N5C[C@@H](C)N[C@@H](C)C5)nc4oc3=O)cn2c1 [Cpd 67, 7-[(3R,5S)-3,5-dimethylpiperazin-1-yl]-3-(6-methylimidazo[1,2-a]pyridin-2-yl)-2H-pyrano[2,3-b]pyridin-2-one] | ≤ 0.1 | **** (a fold increase between >1.5 and ≦1.65 is indicated by four stars (****)) | *** (an EC1.5× between >0.3 μM and ≦1 μM is indicated by three stars (***)) |
